In ChEMBL document CHEMBL5712921, “Unlocking the Recovery Potential: JMJD3 Inhibition-Mediated SAPK/JNK Signaling Inactivation Supports Endogenous Oligodendrocyte-Lineage Commitment Post Mammalian Spinal Cord Injury” (Neurochem Res, 2021):
One block for each compound: values may come before it. Active and inactive are the calls of the source. The calls are words filed in the database; no cut-off is given here.

Key:
[1] = biological target: Lysine-specific demethylase 6B (Mus musculus) (UniProt Q5NCY0); experiment: […] of JMJD3 in mouse C17.2 cells at 10 uM for 3 hrs; type: cell-based
Lysine-specific demethylase 6B (Mus musculus), sequence (Q5NCY0 whole entry): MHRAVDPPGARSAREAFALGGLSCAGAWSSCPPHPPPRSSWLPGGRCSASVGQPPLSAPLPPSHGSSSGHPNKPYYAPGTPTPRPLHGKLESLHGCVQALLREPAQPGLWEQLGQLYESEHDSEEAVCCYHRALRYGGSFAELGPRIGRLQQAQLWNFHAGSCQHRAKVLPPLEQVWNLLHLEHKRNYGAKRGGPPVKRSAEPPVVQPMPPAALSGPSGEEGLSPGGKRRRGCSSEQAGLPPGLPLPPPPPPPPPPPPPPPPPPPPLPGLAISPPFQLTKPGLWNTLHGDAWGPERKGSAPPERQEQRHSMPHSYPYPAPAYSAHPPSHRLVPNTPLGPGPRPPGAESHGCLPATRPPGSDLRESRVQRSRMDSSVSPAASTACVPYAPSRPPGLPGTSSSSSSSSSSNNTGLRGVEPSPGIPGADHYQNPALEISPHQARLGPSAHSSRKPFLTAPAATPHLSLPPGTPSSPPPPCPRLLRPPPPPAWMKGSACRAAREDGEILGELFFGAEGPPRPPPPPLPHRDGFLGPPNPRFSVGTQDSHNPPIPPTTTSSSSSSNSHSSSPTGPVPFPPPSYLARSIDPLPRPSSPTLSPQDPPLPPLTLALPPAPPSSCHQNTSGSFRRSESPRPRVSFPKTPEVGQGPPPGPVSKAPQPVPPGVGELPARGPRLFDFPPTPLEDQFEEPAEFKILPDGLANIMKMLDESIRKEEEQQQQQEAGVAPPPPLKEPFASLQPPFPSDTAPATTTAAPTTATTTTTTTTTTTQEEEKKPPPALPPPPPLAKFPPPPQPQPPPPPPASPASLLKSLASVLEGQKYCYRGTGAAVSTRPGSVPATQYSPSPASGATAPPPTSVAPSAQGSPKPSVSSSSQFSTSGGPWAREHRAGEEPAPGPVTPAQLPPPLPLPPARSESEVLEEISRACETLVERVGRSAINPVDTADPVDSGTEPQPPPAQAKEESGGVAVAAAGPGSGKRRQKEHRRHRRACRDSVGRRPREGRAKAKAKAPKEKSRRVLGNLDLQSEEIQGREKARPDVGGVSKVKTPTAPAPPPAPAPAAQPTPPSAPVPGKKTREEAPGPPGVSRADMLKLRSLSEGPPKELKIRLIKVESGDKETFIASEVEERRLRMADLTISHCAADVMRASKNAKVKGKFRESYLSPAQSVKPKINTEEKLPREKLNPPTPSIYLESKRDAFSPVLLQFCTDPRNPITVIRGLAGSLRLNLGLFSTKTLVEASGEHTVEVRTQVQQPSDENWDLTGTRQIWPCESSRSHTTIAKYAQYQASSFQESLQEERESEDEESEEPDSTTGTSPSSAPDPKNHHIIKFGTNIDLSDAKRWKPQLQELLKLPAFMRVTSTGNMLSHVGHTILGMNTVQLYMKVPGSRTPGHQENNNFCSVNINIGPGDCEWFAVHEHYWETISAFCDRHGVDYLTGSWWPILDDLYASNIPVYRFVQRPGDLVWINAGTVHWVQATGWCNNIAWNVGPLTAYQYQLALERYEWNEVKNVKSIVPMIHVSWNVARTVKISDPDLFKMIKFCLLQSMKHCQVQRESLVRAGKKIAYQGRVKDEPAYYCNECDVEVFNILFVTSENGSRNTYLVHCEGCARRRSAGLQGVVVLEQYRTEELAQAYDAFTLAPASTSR

Mus musculus [2] = experiment: In vivo inhibition of JMJD3 in SCI mouse model assessed as upregulation of Olig2 expression administered at 100 mg/kg, ip for 5 days followed by subcutaneous administration for 7 days by immunoblot analysis; type: functional, organism-based; details: time 12.0 day
[3] = biological target: Lysine-specific demethylase 6B (Mus musculus) (UniProt Q5NCY0); experiment: Inhibition of JMJD3 in mouse Neural Progenitor cell assessed as Olig2 expression at 10 uM by immunoblot analysis; type: cell-based
Mus musculus [4] = experiment: In vivo inhibition of JMJD3 in SCI mouse model assessed as upregulation of H3K27me3 expression administered at 100 mg/kg, ip for 5 days followed by subcutaneous administration for 7 days by immunoblot analysis; type: functional, organism-based; details: time 12.0 day
[5] = biological target: Lysine-specific demethylase 6B (Mus musculus) (UniProt Q5NCY0); experiment: Inhibition of JMJD3 in mouse C17.2 cell assessed as increased number of olig2 positive cell at 10 uM by Hoechst staining analysis; type: cell-based
[6] = biological target: Lysine-specific demethylase 6B (Mus musculus) (UniProt Q5NCY0); experiment: Inhibition of JMJD3 in mouse C17.2 cell assessed as Olig2 expression at 10 uM by immunoblot analysis; type: cell-based
Mus musculus [7] = species: Mus musculus; experiment: […] of phosphorylated c-Jun at ser63 residue in SCI mouse model; type: functional, organism-based
[8] = biological target: Lysine-specific demethylase 6B (Mus musculus) (UniProt Q5NCY0); experiment: Inhibition of JMJD3 in mouse Neural Progenitor cell assessed as enhanced Olig2 expression at 10 uM by immunofluorescent staining; type: cell-based
Mus musculus [9] = experiment: Remyelination activity of SCI mouse model assessed as olig2 positive tube like structure administered at 100 mg/kg, ip for 5 days followed by subcutaneous administration for 7 days by immunohistochemical analysis; details: time 12.0 day
[10] = biological target: Lysine-specific demethylase 6B (Mus musculus) (UniProt Q5NCY0); experiment: Inhibition of JMJD3 in mouse C17.2 cell assessed as decreased number of GFAP positive cell at 10 uM by Hoechst staining analysis; type: cell-based
[11] = biological target: Lysine-specific demethylase 6B (Mus musculus) (UniProt Q5NCY0); experiment: Inhibition of JMJD3 in mouse C17.2 cells at 20 uM for 3 hrs; type: cell-based

Activity [1]: Active
SMILES: CC[C@]1(O)C[C@@H]2CN(CCc3c([nH]c4ccccc34)[C@@](C(=O)OC)(c3cc4c(cc3OC)N(C)[C@H]3[C@@](O)(C(=O)OC)[C@H](OC(C)=O)[C@]5(CC)C=CCN6CC[C@]43[C@@H]65)C2)C1

inhibition [3]: Active | inhibition [5]: Active | inhibition [6]: Active | inhibition [8]: Active | inhibition [10]: Active
SMILES: CCOC(=O)CCNc1cc(N2CCc3ccccc3CC2)nc(-c2ccccn2)n1
inhibition (Mus musculus [2]): Active | inhibition (Mus musculus [4]): Active | Activity (Mus musculus [7]): Active | Activity (Mus musculus [9]): Active

inhibition [11]: Active
SMILES: O=C1c2ccccc2-c2n[nH]c3cccc1c23
